# Data: ChEMBL document CHEMBL4043169, “Discovery of potent and selective CDK8 inhibitors through FBDD approach” (Bioorg Med Chem Lett, 2017)
# Assays:
# CDK8/Cyclin C = CDK8/Cyclin C (Homo sapiens, UniProt P49336); assay: Inhibition of recombinant full length His-tagged human CDK8/Cyclin C expressed in baculovirus expression system using Ulight-GS peptide as substrate after 30 mins in presence of ATP by TR-FRET assay
# [1] = target: Serine/threonine-protein kinase pim-1 (Homo sapiens) (UniProt P11309); assay: Inhibition of PIM1 (unknown origin) at 1 uM relative to control
# [2] = target: Serine/threonine-protein kinase 4 (Homo sapiens) (UniProt Q13043); assay: Inhibition of MST1 (unknown origin) at 1 uM relative to control
# [3] = target: Fibroblast growth factor receptor 1 (Homo sapiens) (UniProt P11362); assay: Inhibition of FGFR1 (unknown origin) at 1 uM relative to control
# [4] = target: Rho-associated protein kinase 1 (Homo sapiens) (UniProt Q13464); assay: Inhibition of ROCK1 (unknown origin) at 1 uM relative to control
# [5] = target: Ephrin type-A receptor 1 (Homo sapiens) (UniProt P21709); assay: Inhibition of EPHA1 (unknown origin) at 1 uM relative to control
# [6] = target: Glycogen synthase kinase-3 beta (Homo sapiens) (UniProt P49841); assay: Inhibition of Gsk3beta (unknown origin) at 1 uM relative to control
# Chain of Glycogen synthase kinase-3 beta (Homo sapiens) (P49841 whole entry, looked up): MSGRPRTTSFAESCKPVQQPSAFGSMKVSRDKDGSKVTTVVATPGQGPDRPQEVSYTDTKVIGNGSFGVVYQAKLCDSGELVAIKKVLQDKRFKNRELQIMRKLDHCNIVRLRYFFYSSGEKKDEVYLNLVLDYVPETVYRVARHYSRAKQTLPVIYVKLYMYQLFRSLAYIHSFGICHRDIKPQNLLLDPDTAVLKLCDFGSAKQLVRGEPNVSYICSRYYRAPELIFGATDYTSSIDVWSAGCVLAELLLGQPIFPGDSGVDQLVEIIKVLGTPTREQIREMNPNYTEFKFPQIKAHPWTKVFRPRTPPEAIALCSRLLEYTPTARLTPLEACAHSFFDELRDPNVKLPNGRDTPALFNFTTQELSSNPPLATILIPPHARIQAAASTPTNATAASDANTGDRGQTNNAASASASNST
# [7] = target: Vascular endothelial growth factor receptor 2 (Homo sapiens) (UniProt P35968); assay: Inhibition of KDR (unknown origin) at 1 uM relative to control
# [8] = target: Ribosomal protein S6 kinase alpha-5 (Homo sapiens) (UniProt O75582); assay: Inhibition of MSK1 (unknown origin) at 1 uM relative to control
# [9] = target: Tyrosine-protein kinase Lck (Homo sapiens) (UniProt P06239); assay: Inhibition of LCK (unknown origin) at 1 uM relative to control
# [10] = target: Aurora kinase A (Homo sapiens) (UniProt O14965); assay: Inhibition of AurA (unknown origin) at 1 uM relative to control
# [11] = target: Ribosomal protein S6 kinase alpha-4 (Homo sapiens) (UniProt O75676); assay: Inhibition of MSK2 (unknown origin) at 1 uM relative to control
# [12] = target: Mitogen-activated protein kinase 14 (Homo sapiens) (UniProt Q16539); assay: Inhibition of p38alpha (unknown origin) at 1 uM relative to control
# [13] = target: Ribosomal protein S6 kinase alpha-2 (Homo sapiens) (UniProt Q15349); assay: Inhibition of RSK2 (unknown origin) at 1 uM relative to control
# [14] = target: Tyrosine-protein kinase JAK2 (Homo sapiens) (UniProt O60674); assay: Inhibition of JAK2 (unknown origin) at 1 uM relative to control
# [15] = target: Aurora kinase B (Homo sapiens) (UniProt Q96GD4); assay: Inhibition of AurB (unknown origin) at 1 uM relative to control
# [16] = target: Platelet-derived growth factor receptor alpha (Homo sapiens) (UniProt P16234); assay: Inhibition of PDGFRalpha (unknown origin) at 1 uM relative to control
# [17] = target: Inhibitor of nuclear factor kappa-B kinase subunit beta (Homo sapiens) (UniProt O14920); assay: Inhibition of IKKbeta (unknown origin) at 1 uM relative to control
# [18] = target: Receptor-type tyrosine-protein kinase FLT3 (Homo sapiens) (UniProt P36888); assay: Inhibition of FLT3 (unknown origin) at 1 uM relative to control
# [19] = target: Epidermal growth factor receptor (Homo sapiens) (UniProt P00533); assay: Inhibition of EGFR (unknown origin) at 1 uM relative to control
# [20] = target: Mitogen-activated protein kinase 9 (Homo sapiens) (UniProt P45984); assay: Inhibition of JNK2 (unknown origin) at 1 uM relative to control
# Chain of Mitogen-activated protein kinase 9 (Homo sapiens) (P45984 whole entry, looked up): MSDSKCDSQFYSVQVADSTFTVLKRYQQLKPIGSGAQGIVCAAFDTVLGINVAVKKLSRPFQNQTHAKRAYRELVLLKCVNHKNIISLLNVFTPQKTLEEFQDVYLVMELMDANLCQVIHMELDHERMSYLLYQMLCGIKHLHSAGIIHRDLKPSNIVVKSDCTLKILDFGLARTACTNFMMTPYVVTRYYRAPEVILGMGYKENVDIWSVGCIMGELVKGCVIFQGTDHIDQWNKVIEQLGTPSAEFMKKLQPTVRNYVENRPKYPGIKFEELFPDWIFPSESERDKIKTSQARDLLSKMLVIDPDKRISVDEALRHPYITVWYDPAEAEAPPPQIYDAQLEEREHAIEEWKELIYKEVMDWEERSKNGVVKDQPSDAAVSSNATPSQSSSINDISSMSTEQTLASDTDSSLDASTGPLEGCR
# [21] = target: 3-phosphoinositide-dependent protein kinase 1 (Homo sapiens) (UniProt O15530); assay: Inhibition of PDK1 (unknown origin) at 1 uM relative to control
# [22] = target: Angiopoietin-1 receptor (Homo sapiens) (UniProt Q02763); assay: Inhibition of TIE2 (unknown origin) at 1 uM relative to control
# [23] = target: ALK tyrosine kinase receptor (Homo sapiens) (UniProt Q9UM73); assay: Inhibition of ALK (unknown origin) at 1 uM relative to control
# [24] = target: Ribosomal protein S6 kinase alpha-1 (Homo sapiens) (UniProt Q15418); assay: Inhibition of RSK1 (unknown origin) at 1 uM relative to control
# Chain of Ribosomal protein S6 kinase alpha-1 (Homo sapiens) (Q15418 whole entry): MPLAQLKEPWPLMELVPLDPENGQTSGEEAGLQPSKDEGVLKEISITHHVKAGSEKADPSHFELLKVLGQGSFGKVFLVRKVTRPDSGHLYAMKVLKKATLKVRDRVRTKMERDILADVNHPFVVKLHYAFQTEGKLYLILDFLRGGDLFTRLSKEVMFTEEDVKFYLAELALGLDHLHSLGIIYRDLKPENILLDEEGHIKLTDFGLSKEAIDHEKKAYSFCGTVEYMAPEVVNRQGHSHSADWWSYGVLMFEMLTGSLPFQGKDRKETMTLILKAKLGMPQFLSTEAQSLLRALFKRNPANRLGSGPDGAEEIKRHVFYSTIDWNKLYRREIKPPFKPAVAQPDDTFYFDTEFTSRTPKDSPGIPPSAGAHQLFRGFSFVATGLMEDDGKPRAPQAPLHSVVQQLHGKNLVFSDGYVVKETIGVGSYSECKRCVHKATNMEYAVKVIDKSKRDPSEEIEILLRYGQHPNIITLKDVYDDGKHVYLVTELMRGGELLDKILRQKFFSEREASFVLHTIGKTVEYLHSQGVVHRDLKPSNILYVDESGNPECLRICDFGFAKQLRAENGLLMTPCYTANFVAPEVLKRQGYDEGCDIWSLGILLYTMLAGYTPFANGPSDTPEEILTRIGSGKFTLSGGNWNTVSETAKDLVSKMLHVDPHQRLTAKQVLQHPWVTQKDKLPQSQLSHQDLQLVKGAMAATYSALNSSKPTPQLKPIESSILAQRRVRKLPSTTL
# [25] = target: Protein kinase C alpha type (Homo sapiens) (UniProt P17252); assay: Inhibition of PKCalpha (unknown origin) at 1 uM relative to control
# [26] = target: 5'-AMP-activated protein kinase catalytic subunit alpha-1 (Homo sapiens) (UniProt Q13131); assay: Inhibition of AMPKa1 (unknown origin) at 1 uM relative to control
# AGS = assay: Antiproliferative activity against human AGS cells after 72 hrs by MTT assay
# Homo sapiens = species on record: Homo sapiens; assay: Inhibition of P70S6K (unknown origin) at 1 uM relative to control
# [27] = target: Serine/threonine-protein kinase Sgk1 (Homo sapiens) (UniProt O00141); assay: Inhibition of SGK (unknown origin) at 1 uM relative to control
# [28] = target: Serine/threonine-protein kinase PAK 4 (Homo sapiens) (UniProt O96013); assay: Inhibition of PAK4 (unknown origin) at 1 uM relative to control
# [29] = target: Mast/stem cell growth factor receptor Kit (Homo sapiens) (UniProt P10721); assay: Inhibition of cKIT (unknown origin) at 1 uM relative to control
# Chain of Mast/stem cell growth factor receptor Kit (Homo sapiens) (P10721 whole entry): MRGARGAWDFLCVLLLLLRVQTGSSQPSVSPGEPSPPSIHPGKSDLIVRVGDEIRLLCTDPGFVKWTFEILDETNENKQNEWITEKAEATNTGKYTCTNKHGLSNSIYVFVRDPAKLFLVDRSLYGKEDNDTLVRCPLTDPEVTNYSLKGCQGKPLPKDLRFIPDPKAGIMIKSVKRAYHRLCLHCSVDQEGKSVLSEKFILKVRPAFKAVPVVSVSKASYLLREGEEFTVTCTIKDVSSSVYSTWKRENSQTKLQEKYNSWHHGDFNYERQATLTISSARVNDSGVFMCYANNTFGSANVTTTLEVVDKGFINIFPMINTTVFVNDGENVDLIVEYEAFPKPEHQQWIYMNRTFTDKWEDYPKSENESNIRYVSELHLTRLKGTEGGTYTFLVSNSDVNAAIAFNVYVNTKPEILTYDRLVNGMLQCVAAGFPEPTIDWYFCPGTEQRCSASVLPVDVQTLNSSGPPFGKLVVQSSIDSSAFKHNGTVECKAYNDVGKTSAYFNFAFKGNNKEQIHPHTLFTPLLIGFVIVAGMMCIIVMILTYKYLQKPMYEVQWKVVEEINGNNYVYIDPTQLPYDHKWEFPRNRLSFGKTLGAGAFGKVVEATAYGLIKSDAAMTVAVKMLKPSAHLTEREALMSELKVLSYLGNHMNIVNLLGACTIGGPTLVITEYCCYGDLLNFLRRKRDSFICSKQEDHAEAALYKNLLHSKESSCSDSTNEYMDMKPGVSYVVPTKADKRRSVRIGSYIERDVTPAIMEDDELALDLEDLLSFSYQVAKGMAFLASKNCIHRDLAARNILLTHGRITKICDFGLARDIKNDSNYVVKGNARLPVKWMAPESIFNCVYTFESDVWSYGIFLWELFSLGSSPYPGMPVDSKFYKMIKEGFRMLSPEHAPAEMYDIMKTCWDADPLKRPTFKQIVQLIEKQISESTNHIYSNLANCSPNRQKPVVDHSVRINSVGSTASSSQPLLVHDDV
# [30] = target: Cyclin-dependent kinase 6 (Homo sapiens) (UniProt Q00534); assay: Inhibition of CDK6 (unknown origin) at 1 uM relative to control
# [31] = target: RAC-alpha serine/threonine-protein kinase (Homo sapiens) (UniProt P31749); assay: Inhibition of AKT1 (unknown origin) at 1 uM relative to control
# [32] = target: Receptor tyrosine-protein kinase erbB-2 (Homo sapiens) (UniProt P04626); assay: Inhibition of HER2 (unknown origin) at 1 uM relative to control
# [33] = target: Cyclin-dependent kinase 2 (Homo sapiens) (UniProt P24941); assay: Inhibition of CDK2 (unknown origin) at 1 uM relative to control
# [34] = target: Calcium/calmodulin-dependent protein kinase type IV (Homo sapiens) (UniProt Q16566); assay: Inhibition of CAMK4 (unknown origin) at 1 uM relative to control
# Chain of Calcium/calmodulin-dependent protein kinase type IV (Homo sapiens) (Q16566 whole entry): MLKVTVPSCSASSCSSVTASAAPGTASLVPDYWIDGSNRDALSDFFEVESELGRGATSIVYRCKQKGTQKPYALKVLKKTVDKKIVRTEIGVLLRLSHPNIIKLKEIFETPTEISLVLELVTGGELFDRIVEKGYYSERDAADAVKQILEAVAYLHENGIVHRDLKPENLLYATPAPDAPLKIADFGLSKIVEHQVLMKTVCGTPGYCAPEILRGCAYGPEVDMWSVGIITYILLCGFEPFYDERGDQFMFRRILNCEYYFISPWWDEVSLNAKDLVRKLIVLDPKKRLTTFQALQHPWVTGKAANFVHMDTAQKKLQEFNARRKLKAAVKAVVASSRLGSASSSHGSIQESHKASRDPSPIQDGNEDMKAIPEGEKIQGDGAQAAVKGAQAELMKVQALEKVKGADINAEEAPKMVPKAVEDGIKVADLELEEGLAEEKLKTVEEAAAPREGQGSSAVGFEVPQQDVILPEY
# [35] = target: Insulin-like growth factor 1 receptor (Homo sapiens) (UniProt P08069); assay: Inhibition of IGF1R (unknown origin) at 1 uM relative to control
# [36] = target: Serine/threonine-protein kinase MARK1 (Homo sapiens) (UniProt Q9P0L2); assay: Inhibition of MARK1 (unknown origin) at 1 uM relative to control
# [37] = target: Mitogen-activated protein kinase 3 (Homo sapiens) (UniProt P27361); assay: Inhibition of ERK1 (unknown origin) at 1 uM relative to control
# [38] = target: Interleukin-1 receptor-associated kinase 1 (Homo sapiens) (UniProt P51617); assay: Inhibition of IRAK1 (unknown origin) at 1 uM relative to control
# [39] = target: Proto-oncogene tyrosine-protein kinase Src (Homo sapiens) (UniProt P12931); assay: Inhibition of SRC (unknown origin) at 1 uM relative to control
# [40] = target: Tyrosine-protein kinase ABL1 (Homo sapiens) (UniProt P00519); assay: Inhibition of ABL (unknown origin) at 1 uM relative to control
# Chain of Tyrosine-protein kinase ABL1 (Homo sapiens) (P00519 whole entry, canonical isoform): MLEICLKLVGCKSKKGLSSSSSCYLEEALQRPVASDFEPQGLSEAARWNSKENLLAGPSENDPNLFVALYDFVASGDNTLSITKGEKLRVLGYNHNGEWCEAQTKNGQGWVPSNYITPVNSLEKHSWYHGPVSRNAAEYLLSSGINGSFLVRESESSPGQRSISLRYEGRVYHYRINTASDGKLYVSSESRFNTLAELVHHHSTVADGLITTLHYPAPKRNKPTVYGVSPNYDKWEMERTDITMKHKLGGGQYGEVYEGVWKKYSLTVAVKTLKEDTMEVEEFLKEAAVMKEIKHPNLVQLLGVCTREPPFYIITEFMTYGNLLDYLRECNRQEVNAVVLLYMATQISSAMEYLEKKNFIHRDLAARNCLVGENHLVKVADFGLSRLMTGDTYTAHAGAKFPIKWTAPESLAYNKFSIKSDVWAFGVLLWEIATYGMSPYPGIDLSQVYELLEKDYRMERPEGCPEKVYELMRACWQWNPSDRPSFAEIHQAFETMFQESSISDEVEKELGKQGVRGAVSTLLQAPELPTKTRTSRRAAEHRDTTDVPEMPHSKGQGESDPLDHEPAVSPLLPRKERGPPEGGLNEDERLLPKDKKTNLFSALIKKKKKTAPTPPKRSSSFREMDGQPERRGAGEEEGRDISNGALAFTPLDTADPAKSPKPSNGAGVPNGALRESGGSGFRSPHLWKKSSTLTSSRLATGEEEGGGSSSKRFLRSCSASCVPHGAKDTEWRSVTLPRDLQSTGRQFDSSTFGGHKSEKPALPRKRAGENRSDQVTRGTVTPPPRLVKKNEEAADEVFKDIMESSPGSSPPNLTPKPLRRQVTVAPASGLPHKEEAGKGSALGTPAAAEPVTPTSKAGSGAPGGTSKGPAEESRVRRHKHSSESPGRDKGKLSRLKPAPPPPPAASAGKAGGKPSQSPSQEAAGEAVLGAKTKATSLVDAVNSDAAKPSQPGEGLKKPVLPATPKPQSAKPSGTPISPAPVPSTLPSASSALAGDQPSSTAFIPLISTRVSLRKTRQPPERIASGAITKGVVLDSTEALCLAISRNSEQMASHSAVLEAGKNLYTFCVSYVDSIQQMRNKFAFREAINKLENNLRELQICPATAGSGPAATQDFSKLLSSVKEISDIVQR
# [41] = target: Casein kinase I isoform delta (Homo sapiens) (UniProt P48730); assay: Inhibition of CK1delta (unknown origin) at 1 uM relative to control
# [42] = target: Hepatocyte growth factor receptor (Homo sapiens) (UniProt P08581); assay: Inhibition of cMET (unknown origin) at 1 uM relative to control
# [43] = Cmax in mouse at 5 mg/kg, iv; format: ADME, organism-based; set-up: dose 5 mg/kg, route intravenous; conditions: in vivo
# [44] = Half life in mouse at 25 mg/kg, po; format: ADME, organism-based; conditions: in vivo
# [45] = Tmax in mouse at 25 mg/kg, po; format: ADME, organism-based; conditions: in vivo
# [46] = Cmax in mouse at 25 mg/kg, po; format: ADME, organism-based; set-up: dose 25 mg/kg, route oral; conditions: in vivo
# [47] = Half life in mouse at 5 mg/kg, iv; format: ADME, organism-based; conditions: in vivo
# [48] = Volume of distribution at steady state in mouse at 5 mg/kg, iv; format: ADME, organism-based; conditions: in vivo, read-out: Vdss
# [49] = Clearance in mouse at 5 mg/kg, iv; format: ADME, organism-based; conditions: in vivo
# [50] = Oral bioavailability in mouse at 25 mg/kg; format: ADME, organism-based; conditions: in vivo
# Chain of CDK8/Cyclin C (P49336 whole entry): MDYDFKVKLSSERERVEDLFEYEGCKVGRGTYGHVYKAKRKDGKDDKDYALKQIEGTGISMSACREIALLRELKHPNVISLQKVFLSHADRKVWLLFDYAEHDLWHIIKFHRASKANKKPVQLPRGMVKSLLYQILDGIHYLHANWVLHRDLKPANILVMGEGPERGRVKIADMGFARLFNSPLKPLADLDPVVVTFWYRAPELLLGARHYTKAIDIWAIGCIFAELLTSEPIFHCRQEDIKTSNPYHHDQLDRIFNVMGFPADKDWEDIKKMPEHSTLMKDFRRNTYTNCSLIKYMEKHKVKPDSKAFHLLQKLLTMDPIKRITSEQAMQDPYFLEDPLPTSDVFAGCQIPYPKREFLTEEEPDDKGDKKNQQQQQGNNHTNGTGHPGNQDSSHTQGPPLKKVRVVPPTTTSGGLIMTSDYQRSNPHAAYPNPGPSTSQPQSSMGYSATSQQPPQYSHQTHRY
# Chain of CDK8/Cyclin C (P24863 whole entry, further chain): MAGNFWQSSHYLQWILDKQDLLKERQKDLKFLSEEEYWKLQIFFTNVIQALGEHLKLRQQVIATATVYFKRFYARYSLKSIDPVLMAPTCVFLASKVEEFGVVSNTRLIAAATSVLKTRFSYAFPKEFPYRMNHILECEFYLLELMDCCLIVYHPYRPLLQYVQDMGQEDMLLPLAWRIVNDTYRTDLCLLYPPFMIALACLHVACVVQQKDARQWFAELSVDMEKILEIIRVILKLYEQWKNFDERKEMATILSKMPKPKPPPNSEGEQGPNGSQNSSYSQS
smiles,measurement,setting,value
Cc1cc(-c2c[nH]c(C(N)=O)c2C)ccn1,IC50,CDK8/Cyclin C,19 nM
NC(=O)c1cc(-c2ccncc2Cl)c[nH]1,IC50,CDK8/Cyclin C,19 nM
Cc1cnccc1-c1c[nH]c(C(N)=O)c1,IC50,CDK8/Cyclin C,87 nM
Cc1[nH]c(C(N)=O)cc1-c1ccncc1,IC50,CDK8/Cyclin C,240 nM
CNC(=O)c1cc(-c2ccncc2)c[nH]1,IC50,CDK8/Cyclin C,410 nM
NC(=O)c1cc(-c2ccnc(Cl)c2)c[nH]1,IC50,CDK8/Cyclin C,350 nM
NC(=O)c1cc(-c2ccncc2Br)c[nH]1,IC50,CDK8/Cyclin C,37 nM
NC(=O)c1cc(-c2ccncc2)cn1Cc1ccccc1,IC50,CDK8/Cyclin C,170 nM
Cc1c(-c2ccncc2)c[nH]c1C(N)=O,inhibition,[1],< 20%
same,inhibition,[2],< 20%
same,inhibition,[3],< 20%
same,inhibition,[4],< 20%
same,inhibition,[5],< 20%
same,inhibition,[6],< 20%
same,inhibition,[7],< 20%
same,inhibition,[8],< 20%
same,inhibition,[9],< 20%
same,inhibition,[10],< 20%
same,inhibition,[11],< 20%
same,inhibition,[12],< 20%
same,inhibition,[13],< 20%
same,inhibition,[14],< 20%
same,inhibition,[15],< 20%
same,inhibition,[16],< 20%
same,inhibition,[17],< 20%
same,inhibition,[18],< 20%
same,inhibition,[19],< 20%
same,inhibition,[20],< 20%
same,inhibition,[21],< 20%
same,inhibition,[22],< 20%
same,inhibition,[23],< 20%
same,inhibition,[24],< 20%
same,inhibition,[25],< 20%
same,inhibition,[26],< 20%
same,IC50,AGS,800 nM
same,inhibition,Homo sapiens,< 20%
same,inhibition,[27],< 20%
same,inhibition,[28],< 20%
same,inhibition,[29],< 20%
same,inhibition,[30],< 20%
same,inhibition,[31],< 20%
same,inhibition,[32],< 20%
same,inhibition,[33],< 20%
same,inhibition,[34],< 20%
same,inhibition,[35],< 20%
same,inhibition,[36],< 20%
same,inhibition,[37],< 20%
same,IC50,CDK8/Cyclin C,8 nM
same,inhibition,[38],< 20%
same,inhibition,[39],< 20%
same,inhibition,[40],< 20%
same,inhibition,[41],< 20%
same,inhibition,[42],< 20%
Cc1cc(-c2c[nH]c(C(N)=O)c2)ccn1,IC50,CDK8/Cyclin C,480 nM
N#Cc1cc(-c2ccncc2)c[nH]1,IC50,CDK8/Cyclin C,280 nM
CCc1cnccc1-c1c[nH]c(C#N)c1,IC50,CDK8/Cyclin C,4630 nM
NC(=O)c1[nH]cc(-c2ccncc2)c1C(F)(F)F,Cmax,[43],9940 ng/mL
same,half-life,[44],475 min
same,Tmax,[45],15 min
same,Cmax,[46],12700 ng/mL
same,IC50,AGS,270 nM
same,half-life,[47],50.4 min
same,Vd,[48],0.49 L/kg
same,clearance,[49],8.87 mL/min/kg
same,IC50,CDK8/Cyclin C,3 nM
same,bioavailability,[50],57.5%
NC(=O)c1cc(-c2ccncc2)c[nH]1,IC50,CDK8/Cyclin C,170 nM
Cn1cc(-c2ccncc2)cc1C(N)=O,IC50,CDK8/Cyclin C,4950 nM
Cc1cnccc1-c1c[nH]c(C(N)=O)c1C,IC50,AGS,1170 nM
same,IC50,CDK8/Cyclin C,10 nM
NC(=O)c1cc(-c2ccncc2)c(Cl)[nH]1,IC50,CDK8/Cyclin C,160 nM
CCc1c(-c2ccncc2)c[nH]c1C(N)=O,IC50,AGS,1120 nM
same,IC50,CDK8/Cyclin C,13 nM
NC(=O)c1[nH]cc(-c2ccncc2)c1Cl,IC50,AGS,370 nM
same,IC50,CDK8/Cyclin C,5 nM
